Test results as given in patent US20230101403A1, “METHOD OF TREATING OR AMELIORATING CANCERS DRIVEN BY RECEPTOR TYROSINE KINASE FUSION ONCOGENES, AND COMPOSITIONS FOR THE SAME” (THE TRUSTEES OF THE UNIVERSITY OF PENNSYLVANIA, priority 2021, published 2023).

Assays:
STE-1 cells [1] = assay: cell death in cells imaged over 24 hrs; type: cell-based
H3122 cells = assay: caspase-3 activity reporter (Nucview) in H3122; type: cell-based; conditions: for killing over untreated cells, single agent: 24 hr
Description: (§1) FIG. 6C depicts the quantification of death in STE-1 cells following 24 hrs of inhibitor treatment. FIG. 6D depicts the number of Erk pulses in cells that died (“D”) and cells that lived (“L”) during 24 hrs of inhibitor treatment. FIG. 6E depicts the percentage of caspase-3+ STE-1 and H3122 cells following 24 hrs of inhibitor treatment.

EGR1, STE-1 cells = assay: EGR1 expression in individual cells after drug treatment; type: cell-based
Experimental: (§2) Error bars represent 95% confidence intervals. […] FIG. 4I depicts the comparison of EGR1 expression after 6 hr of inhibitor treatment. […] FIG. 5B is the schematic of spatial analysis of Erk signaling in relation to dying cells. Cells within a 32 μm radius of a dying cell were considered neighbors of the dying cell, whereas all other cells were non-neighbors. Neighbors/non-neighbors were identified and tracked for 50 min before the death event, and Erk actvity in these cells was quantified. FIG. 5C depicts the quantification of Erk activity pulses in neighbors (“N”) or non-neighbors (“R”) of each cell-death event in the indicated conditions.

[2] = tested on: Erk activity, STE-1 cells; assay: live cell imaging of Erk kinase translocation reporter (ErkKTR); type: cell-based; conditions: for effect on ErkKTR: Erk activity and reactivation pulses: crizotinib 1 μM, erlotinib 1 μM, marimastat 10 μM
Experimental: as §2
To further understand Erk reactivation, the present study observed Erk activity using live cell imaging of the Erk kinase translocation reporter (ErkKTR) in STE-1 cells (FIG. 4A). ErkKTR is a fluorescence reporter whose localization corresponds with Erk activity: the nuclear localization of ErkKTR indicates low activity of Erk while the cytoplasmic localization indicates high activity of Erk.

STE-1 cells [3] = assay: caspase-3 activity reporter (Nucview) in STE-1; type: cell-based; conditions: for killing over untreated cells, single agent: 24 hr
Experimental: as §1
Percent of Caspase-3 positive cells assessed using NucView 488 afterfive days of treatment with the indicated inhibitors: Alecitinib 1 μM, Erlotinib 1 μM, Marimastat 10 μM.

ppErk, H3122 cells = assay: EGF-induced ppErk induction in H3122 cells; type: cell-based; conditions: 100 ng/mL EGF, pre-treatment 1 μM
Description: Data points represent mean single cell ppErk intensity of three replicates.
(§3) To determine whether such negative regulation could be observed in the context of native epidermal growth factor receptor (EGFR) signaling, the present study measured ppErk induction upon addition of epidermal growth factor (EGF) in STE-1 and H3122 cells, two NSCLC cell lines driven by EML4-ALK(V1) (FIG. 2A).
(§4) To determine whether the mechanism was predominantly transcriptional or post-translational, the required duration of ALKi pre-incubation to observe an increase in dynamic range was examined. both STE-1 and H3122 cells were preincubated with varying durations of ALK inhibition, and ppErk levels in response to 15 min of EGF stimulation was analyzed.

[4] = tested on: Erk activity, STE-1 cells
Experimental: as §2
The present study next sought to determine the source of the paracrine signals. […] Signal activation near dying cells was quantified by first identifying the time and location of each cell death event. All cells that were within a 100-pixel radius (˜32 μm, or about a 2-cell radius) of the dying cell for the 50 minutes preceding death were then identified. The present study refers to these as the “neighbors” of the dying cell (FIG. 5B). The present study then counted Erk pulses in the neighbors of a death event and compared to Erk pulses from a randomly selected subset of non-neighbors over that same time interval.

ppErk, STE-1 cells = assay: EGF-induced ppErk induction in STE-1 cells; conditions: 100 ng/mL EGF, pre-treatment 1 μM
Experimental: Data points represent mean single cell ppErk intensity of three replicates. FIG. 2C depicts the quantification of dynamic range of ppErk induction from experiment in 2C performed over a range of EGF concentrations. […] FIG. 2E depicts the ppErk immunofluoresence intensity response to 50 ng/mL EGF stimulation.
as §3, §4

[5] = tested on: ppErk, STE-1 cells expressing optoFGFR; assay: functional profiling: optoFGFR blue light stimulation, single-cell ppErk immunofluorescence; type: cell-based; conditions: STE-1 optoFGFR
Description: FIG. 1A illustrates that EML4-ALK+ cancer cells treated with ALK specific tyrosine kinase inhibitor (TKI) often result in a population of persistent/tolerant cells that later develop into resistant colonies. […] FIG. 1C, left panel, illustrates that transmembrane RTK and EML4-ALK protein granules both signal through the same adapter proteins and downstream pathways like Ras/Erk. FIG. 1C, right panel, illustrates the functional profiling method used in determining the extent to which EML4-ALK expression or its inhibition alter signal transmission in cancer cells. FIG. 1D illustrates that optoFGFR allows for blue light stimulation of RTK (optoFGFR) signal transduction. […] FIG. 1F depicts the normalized ppErk fold-change in response to 5 min of blue light stimulation. Blue light intensity ranged from 2% to 60% of maximum (1.45 W/cm^2). Datapoints show mean single-cell ppErk intensity from three replicates.
A method called functional profiling that allows the measurement of how oncogenes and targeted therapies can alter signal transmission was developed. In functional profiling, light-activated ‘optogenetic’ signaling stimuli are apply at specific nodes of a signaling pathway and downstream signals, transcription, and cell fate as a function of oncogene or drug status are observe.
To determine whether EML4-ALK could alter RTK signal transmission properties, a light-sensitive fibroblast growth factor receptor (optoFGFR) was expressed in the STE-1 cancer cell line, which is driven by the EML4-ALK(V1) oncogene. The present study observed signal transmission by applying blue light stimuli and measuring single-cell phospho-Erk levels single-cell immunofluorescence (FIG. 1D). In STE-1 cells, optoFGFR induced only mild double-phosphorylated Erk (ppErk) signal increase above the high basal ppErk levels attributed to active EML4-ALK (FIG. 1E, top). […] Signal dynamic range increased due to lowering of tonic Erk activity from ALK, as well as from an increase in the maximum signal achievable relative to untreated cells. […]

[6] = tested on: ppErk, STE-1 and H3122 cancer cells; assay: single-cell ppErk levels as a function of treatment duration; type: cell-based; conditions: serum-starved
Description: The present study sought to understand whether relief of EGFR inhibition by EML4-ALK might lead to Erk reactivation in STE-1 and H3122 cancer cells. […] The present study thus further examined Erk reactivation under ALK inhibition combined with marimastat, an inhibitor for matrix metalloproteases that are required for shedding EGF family ligands prior to paracrine signaling.

| Compound | Erk pulses in surviving cells compared to cells that died (STE-1 cells [1]; 24 hrs) | cell death, % of cells analyzed (STE-1 cells [1]; imaged over 24 hrs) | caspase-3-positive cell fraction (H3122 cells; first 24 hr of treatment) | time EGR1 levels remained low (EGR1, STE-1 cells) | EGR1 expression (EGR1-high population) (EGR1, STE-1 cells; crizotinib 1 μM, erlotinib 1 μM) | ErkKTR localization upon treatment ([2]; 1 μM) | caspase-3-positive cell fraction (STE-1 cells [3]; first 24 hr of treatment) | ppErk dynamic range in response to EGF (ppErk, H3122 cells) | median Erk pulses per cell, neighbors of a death ([4]; 50 minutes preceding death, within ~32 μm) | proportion of neighbor cells with at least 1 pulse preceding a death event ([4]; neighbors) | proportion of non-neighbor cells with at least 1 pulse preceding a death event ([4]; non-neighbors) | ppErk dynamic range in response to EGF (ppErk, STE-1 cells) | dynamic range of signal induction (ppErk) ([5]; blue light, pre-treatment 1 μM) | light stimulation at which increase of dynamic range could be observed ([5]; 1 μM) | dynamic range plateau (induction) at the highest light levels ([5]; 1 μM, highest levels of light stimulation) | time to reappearance of ERK-hi cells [6] | time within which mean Erk levels decreased dramatically [6] | killing over untreated cells, single agent (H3122 cells) | effect on ErkKTR: Erk activity and reactivation pulses [2] | killing over untreated cells, single agent (STE-1 cells [3]) |
| --- | --- | --- | --- | --- | --- | --- | --- | --- | --- | --- | --- | --- | --- | --- | --- | --- | --- | --- | --- | --- |
| C[C@@H](Oc1cc(-c2cnn(C3CCNCC3)c2)cnc1N)c1c(Cl)ccc(F)c1Cl [crizotinib] | surviving cells showed an increased number of Erk pulses compared to cells that died | ~40% | 5% | at least 2 hrs | a distinct peak of EGR1-high cells appeared and grew at 4 and 6 hrs after drug treatment | induced rapid nuclear translocation of ErkKTR in all cells | 25% | dramatic increase in ppErk dynamic range | 0.23 pulses per cell | 60% | 20% | dramatic increase in ppErk dynamic range | ~18 fold | ≤ 5 % maximal light stimulation | ~25 fold | ≤ 1 h | ≤ 10 min |  |  |  |
| C#Cc1cccc(Nc2ncnc3cc(OCCOC)c(OCCOC)cc23)c1 [erlotinib] |  |  |  |  |  |  |  |  |  |  |  |  |  |  |  |  |  | Neither erlotinib or marimastat treatment alone showed enhanced killing over untreated cells | no obvious effect on ErkKTR | Neither erlotinib or marimastat treatment alone showed enhanced killing over untreated cells |
| CNC(=O)[C@@H](NC(=O)[C@H](CC(C)C)[C@H](O)C(=O)NO)C(C)(C)C [marimastat] |  |  |  |  |  |  |  |  |  |  |  |  |  |  |  |  |  | Neither erlotinib or marimastat treatment alone showed enhanced killing over untreated cells | no obvious effect on ErkKTR | Neither erlotinib or marimastat treatment alone showed enhanced killing over untreated cells |
